Measured values: patent US11136329B2, “JAK inhibitors” (Vimalan Biosciences, Inc., priority 2019, dated 2021)

Assays:
Assay type in all cases: biochemical
[1] = molecular target: JAK3 (Homo sapiens (Human), UniProt P52333); assay: JAK/TYK2 assay (Kinase Glo luminescence), JAK3; details: 1.5 nM enzyme, 2 uM ATP, 4 uM pEY, 1 hr
In short: (§1)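 Luminescent Kinase Glo signal, inversely related to kinase activity, measured after a 1-2 hour reaction at 25° C. Buffer: 20 mM HEPES, 10 mM MgCl2, 0.01% Tween, 1 mM DTT, pH 7.5.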

[2] = molecular target: JAK1 (Homo sapiens (Human), UniProt P23458); assay: JAK/TYK2 assay (Kinase Glo luminescence), JAK1; details: 7.5 nM enzyme, 2 uM ATP, 30 uM IRS-1, 1 hr
In short: as §1

[3] = molecular target: TYK2 (Homo sapiens (Human), UniProt P29597); assay: JAK/TYK2 assay (Kinase Glo luminescence), TYK2; details: 9 nM enzyme, 2 uM ATP, 30 uM IRS-1, 1 hr
In short: as §1

[4] = molecular target: JAK2 (Homo sapiens (Human), UniProt O60674); assay: JAK/TYK2 assay (Kinase Glo luminescence), JAK2; details: 0.8 nM enzyme, 2 uM ATP, 4 uM pEY, 1 hr
In short: as §1

Chain of JAK1 (P23458 whole entry, species assumed): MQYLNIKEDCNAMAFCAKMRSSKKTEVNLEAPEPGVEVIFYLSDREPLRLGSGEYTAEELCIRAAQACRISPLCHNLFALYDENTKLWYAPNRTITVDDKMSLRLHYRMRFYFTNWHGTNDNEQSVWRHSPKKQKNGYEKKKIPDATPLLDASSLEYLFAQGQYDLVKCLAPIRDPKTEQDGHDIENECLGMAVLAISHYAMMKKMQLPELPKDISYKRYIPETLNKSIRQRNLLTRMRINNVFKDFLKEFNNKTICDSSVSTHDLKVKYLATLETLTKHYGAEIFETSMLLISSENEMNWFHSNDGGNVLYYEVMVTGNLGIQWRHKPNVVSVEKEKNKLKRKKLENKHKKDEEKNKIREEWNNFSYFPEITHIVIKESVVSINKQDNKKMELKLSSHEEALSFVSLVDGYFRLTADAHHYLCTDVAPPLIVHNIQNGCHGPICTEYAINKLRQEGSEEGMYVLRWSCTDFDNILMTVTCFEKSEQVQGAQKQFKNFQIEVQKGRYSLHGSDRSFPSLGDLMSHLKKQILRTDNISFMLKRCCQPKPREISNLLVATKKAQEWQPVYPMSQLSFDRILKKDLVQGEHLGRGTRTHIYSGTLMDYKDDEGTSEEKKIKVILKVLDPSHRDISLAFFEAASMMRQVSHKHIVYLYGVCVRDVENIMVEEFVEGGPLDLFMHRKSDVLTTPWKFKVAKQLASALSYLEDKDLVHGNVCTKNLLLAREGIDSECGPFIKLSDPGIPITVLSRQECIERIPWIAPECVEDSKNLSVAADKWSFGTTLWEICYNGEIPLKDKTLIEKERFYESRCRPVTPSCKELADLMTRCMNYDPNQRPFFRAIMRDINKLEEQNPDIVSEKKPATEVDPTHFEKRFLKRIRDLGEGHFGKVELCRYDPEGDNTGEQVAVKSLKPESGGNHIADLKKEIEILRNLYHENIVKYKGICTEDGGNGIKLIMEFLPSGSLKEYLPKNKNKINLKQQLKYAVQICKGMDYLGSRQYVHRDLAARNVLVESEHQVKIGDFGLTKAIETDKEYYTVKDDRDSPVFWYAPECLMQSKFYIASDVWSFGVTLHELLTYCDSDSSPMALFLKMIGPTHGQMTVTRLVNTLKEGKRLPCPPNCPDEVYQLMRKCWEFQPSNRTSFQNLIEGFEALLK
Chain of JAK3 (P52333 whole entry, species assumed): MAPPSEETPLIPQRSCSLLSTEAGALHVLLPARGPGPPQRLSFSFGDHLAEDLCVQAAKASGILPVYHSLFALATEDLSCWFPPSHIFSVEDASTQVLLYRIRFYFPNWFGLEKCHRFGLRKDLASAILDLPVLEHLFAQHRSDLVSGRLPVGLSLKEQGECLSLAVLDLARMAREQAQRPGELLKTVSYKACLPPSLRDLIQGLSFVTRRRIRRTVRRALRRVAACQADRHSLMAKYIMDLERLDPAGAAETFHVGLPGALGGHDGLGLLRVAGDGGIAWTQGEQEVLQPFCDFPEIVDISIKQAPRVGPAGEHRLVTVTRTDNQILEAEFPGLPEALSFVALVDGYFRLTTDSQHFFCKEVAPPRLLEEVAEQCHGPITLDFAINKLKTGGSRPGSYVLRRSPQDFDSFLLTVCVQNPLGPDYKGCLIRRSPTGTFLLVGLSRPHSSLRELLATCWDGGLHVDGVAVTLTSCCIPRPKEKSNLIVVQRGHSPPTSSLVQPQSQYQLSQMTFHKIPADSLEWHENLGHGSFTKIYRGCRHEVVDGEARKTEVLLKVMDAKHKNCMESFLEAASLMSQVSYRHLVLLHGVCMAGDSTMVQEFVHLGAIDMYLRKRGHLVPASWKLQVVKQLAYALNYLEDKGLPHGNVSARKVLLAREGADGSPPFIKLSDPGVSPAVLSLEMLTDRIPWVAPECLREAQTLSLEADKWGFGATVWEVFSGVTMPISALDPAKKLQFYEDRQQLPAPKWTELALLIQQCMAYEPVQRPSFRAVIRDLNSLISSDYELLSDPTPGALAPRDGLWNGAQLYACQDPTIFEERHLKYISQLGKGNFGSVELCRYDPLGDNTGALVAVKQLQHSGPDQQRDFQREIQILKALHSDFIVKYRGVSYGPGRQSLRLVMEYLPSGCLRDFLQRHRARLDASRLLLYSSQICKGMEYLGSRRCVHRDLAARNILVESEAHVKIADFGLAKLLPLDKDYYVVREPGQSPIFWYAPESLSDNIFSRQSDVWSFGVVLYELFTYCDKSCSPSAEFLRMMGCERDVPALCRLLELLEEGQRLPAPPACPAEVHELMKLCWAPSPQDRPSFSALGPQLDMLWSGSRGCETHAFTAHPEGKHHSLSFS
Chain of TYK2 (P29597 whole entry, species assumed): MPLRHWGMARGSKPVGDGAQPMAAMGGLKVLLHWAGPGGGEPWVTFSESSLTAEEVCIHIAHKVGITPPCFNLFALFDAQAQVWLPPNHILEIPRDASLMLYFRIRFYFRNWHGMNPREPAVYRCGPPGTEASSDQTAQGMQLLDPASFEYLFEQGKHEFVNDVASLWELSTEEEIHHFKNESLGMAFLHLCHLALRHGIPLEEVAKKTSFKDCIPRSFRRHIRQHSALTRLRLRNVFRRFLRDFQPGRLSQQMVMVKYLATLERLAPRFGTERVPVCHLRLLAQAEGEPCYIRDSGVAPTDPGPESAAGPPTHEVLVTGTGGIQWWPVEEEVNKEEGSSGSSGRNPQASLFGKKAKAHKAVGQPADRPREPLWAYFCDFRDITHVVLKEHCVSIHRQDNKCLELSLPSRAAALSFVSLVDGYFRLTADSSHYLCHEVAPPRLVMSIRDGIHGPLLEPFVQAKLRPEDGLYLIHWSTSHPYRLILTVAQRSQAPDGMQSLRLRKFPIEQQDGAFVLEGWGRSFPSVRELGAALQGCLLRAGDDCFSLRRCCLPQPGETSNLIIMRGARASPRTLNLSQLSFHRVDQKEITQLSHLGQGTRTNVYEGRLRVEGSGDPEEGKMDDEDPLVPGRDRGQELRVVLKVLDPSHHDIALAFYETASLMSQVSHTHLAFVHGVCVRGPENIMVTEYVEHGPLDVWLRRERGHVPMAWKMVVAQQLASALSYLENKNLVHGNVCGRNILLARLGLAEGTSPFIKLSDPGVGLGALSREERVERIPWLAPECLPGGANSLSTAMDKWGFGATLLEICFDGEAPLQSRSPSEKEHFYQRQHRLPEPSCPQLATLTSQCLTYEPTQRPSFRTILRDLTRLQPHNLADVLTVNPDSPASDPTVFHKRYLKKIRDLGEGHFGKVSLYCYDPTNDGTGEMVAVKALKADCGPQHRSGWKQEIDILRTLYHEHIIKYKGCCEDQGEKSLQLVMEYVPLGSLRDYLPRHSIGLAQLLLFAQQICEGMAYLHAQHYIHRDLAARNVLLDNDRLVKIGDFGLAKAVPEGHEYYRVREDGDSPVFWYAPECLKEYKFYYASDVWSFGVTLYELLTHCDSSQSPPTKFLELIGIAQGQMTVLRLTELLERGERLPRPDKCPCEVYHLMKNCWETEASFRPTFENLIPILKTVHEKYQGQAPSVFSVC
Chain of JAK2 (O60674 whole entry, species assumed): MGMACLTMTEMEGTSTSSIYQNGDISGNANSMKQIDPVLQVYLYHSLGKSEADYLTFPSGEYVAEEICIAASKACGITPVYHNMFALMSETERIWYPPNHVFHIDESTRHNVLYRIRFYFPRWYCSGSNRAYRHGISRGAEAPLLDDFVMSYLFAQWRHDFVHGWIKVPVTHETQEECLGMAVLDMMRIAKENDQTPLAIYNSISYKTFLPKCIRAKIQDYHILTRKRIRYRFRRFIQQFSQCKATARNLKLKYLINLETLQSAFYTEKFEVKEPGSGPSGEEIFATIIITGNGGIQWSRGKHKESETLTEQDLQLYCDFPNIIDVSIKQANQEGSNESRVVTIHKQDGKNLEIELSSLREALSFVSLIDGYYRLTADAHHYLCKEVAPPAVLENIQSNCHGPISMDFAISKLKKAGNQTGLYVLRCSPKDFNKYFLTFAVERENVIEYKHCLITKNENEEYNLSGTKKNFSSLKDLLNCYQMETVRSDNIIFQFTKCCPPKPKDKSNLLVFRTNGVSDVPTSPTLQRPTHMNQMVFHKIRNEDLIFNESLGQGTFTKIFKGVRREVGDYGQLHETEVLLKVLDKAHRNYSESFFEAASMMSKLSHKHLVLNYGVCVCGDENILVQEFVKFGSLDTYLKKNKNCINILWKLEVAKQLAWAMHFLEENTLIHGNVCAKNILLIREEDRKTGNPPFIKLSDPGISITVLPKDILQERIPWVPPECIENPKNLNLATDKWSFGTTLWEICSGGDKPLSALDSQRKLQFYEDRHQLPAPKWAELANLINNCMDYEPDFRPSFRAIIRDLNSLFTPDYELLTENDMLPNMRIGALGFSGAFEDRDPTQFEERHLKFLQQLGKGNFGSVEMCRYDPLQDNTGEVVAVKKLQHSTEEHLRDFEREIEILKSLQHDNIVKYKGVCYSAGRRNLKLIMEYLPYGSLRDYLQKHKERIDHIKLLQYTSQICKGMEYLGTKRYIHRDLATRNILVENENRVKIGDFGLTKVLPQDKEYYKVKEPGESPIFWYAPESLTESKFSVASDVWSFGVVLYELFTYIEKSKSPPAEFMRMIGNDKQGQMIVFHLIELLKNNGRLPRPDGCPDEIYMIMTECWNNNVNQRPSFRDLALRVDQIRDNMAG

SMILES | IC50 [1] | IC50 [2] | IC50 [3] | IC50 [4]
CCC(C)OC(=O)Cn1cc(Nc2ncc3ccn(CC(CC)C(C)C)c3n2)cn1 (stereo not shown) [Compound 107, sec-butyl 2-(4-((7-(2-ethyl-3-methylbutyl)-7H-pyrrolo[2,3-d]pyrimidin-2-yl)amino)-1H-pyrazol-1-yl)acetate] | < 100 nM | < 100 nM | < 100 nM | < 100 nM
CCC(Cn1ccc2cnc(Nc3cnn(CC(=O)OCC(C)C)c3)nc21)C(C)C (stereo not shown) [Compound 108, isobutyl 2-(4-((7-(2-ethyl-3-methylbutyl)-7H-pyrrolo[2,3-d]pyrimidin-2-yl)amino)-1H-pyrazol-1-yl)acetate] | < 100 nM | < 100 nM | < 100 nM | < 100 nM
CCC(Cn1ccc2cnc(Nc3cnn(CC(=O)OC(C)C(C)O)c3)nc21)C(C)C (stereo not shown) [Compound 109, 3-hydroxybutan-2-yl 2-(4-((7-(2-ethyl-3-methylbutyl)-7H-pyrrolo[2,3-d]pyrimidin-2-yl)amino)-1H-pyrazol-1-yl)acetate] | < 100 nM | < 100 nM | < 100 nM | < 100 nM
CCC(Cn1ccc2cnc(Nc3cnn(CC(=O)OCC(O)CO)c3)nc21)C(C)C (stereo not shown) [Compound 111, 2,3-dihydroxypropyl 2-(4-((7-(2-ethyl-3-methylbutyl)-7H-pyrrolo[2,3-d]pyrimidin-2-yl)amino)-1H-pyrazol-1-yl)acetate] | < 100 nM | < 100 nM | < 100 nM | < 100 nM
CCC(CC)Cn1ccc2cnc(Nc3cnn(CC(=O)OC(C)C(C)O)c3)nc21 (stereo not shown) [Compound 113, 3-hydroxybutan-2-yl 2-(4-((7-(2-ethylbutyl)-7H-pyrrolo[2,3-d]pyrimidin-2-yl)amino)-1H-pyrazol-1-yl)acetate] | < 100 nM | < 100 nM | < 100 nM | < 100 nM
CC(C(=O)O)n1cc(Nc2ncc3ccn(C[C@H]4CC[C@H](O)CC4)c3n2)cn1 (stereo partly shown) [Compound 116, 2-(4-((7-(((1r,4r)-4-hydroxycyclohexyl)methyl)-7H-pyrrolo[2,3-d]pyrimidin-2-yl)amino)-1H-pyrazol-1-yl)propanoic acid] | < 100 nM | < 100 nM | < 100 nM | < 100 nM
O=C(O)CCn1cc(Nc2ncc3ccn(C[C@H]4CC[C@H](O)CC4)c3n2)cn1 [Compound 117, 3-(4-((7-(((1r,4r)-4-hydroxycyclohexyl)methyl)-7H-pyrrolo[2,3-d]pyrimidin-2-yl)amino)-1H-pyrazol-1-yl)propanoic acid] | < 100 nM | < 100 nM | < 100 nM | < 100 nM
CCOC(=O)C(C)n1cc(Nc2ncc3ccn(C[C@@H](CC)C(C)C)c3n2)cn1 (stereo partly drawn) [Compound 118, ethyl 2-(4-((7-((S)-2-ethyl-3-methylbutyl)-7H-pyrrolo[2,3-d]pyrimidin-2-yl)amino)-1H-pyrazol-1-yl)propanoate] | < 100 nM | < 100 nM | < 100 nM | < 100 nM
CCOC(=O)C(C)n1cc(Nc2ncc3ccn(C[C@H]4CC[C@H](O)CC4)c3n2)cn1 (stereo partly shown) [Compound 120, ethyl 2-(4-((7-(((1r,4r)-4-hydroxycyclohexyl)methyl)-7H-pyrrolo[2,3-d]pyrimidin-2-yl)amino)-1H-pyrazol-1-yl)propanoate] | < 100 nM | < 100 nM | < 100 nM | < 100 nM
CCOC(=O)CCn1cc(Nc2ncc3ccn(C[C@H]4CC[C@H](O)CC4)c3n2)cn1 [Compound 121, ethyl 3-(4-((7-(((1r,4r)-4-hydroxycyclohexyl)methyl)-7H-pyrrolo[2,3-d]pyrimidin-2-yl)amino)-1H-pyrazol-1-yl)propanoate] | < 100 nM | < 100 nM | < 100 nM | < 100 nM
CC(C)OC(=O)Cn1cc(Nc2ncc3ccn(C[C@H]4CC[C@H](O)CC4)c3n2)cn1 [Compound 122, isopropyl 2-(4-((7-(((1r,4r)-4-hydroxycyclohexyl)methyl)-7H-pyrrolo[2,3-d]pyrimidin-2-yl)amino)-1H-pyrazol-1-yl)acetate] | < 100 nM | < 100 nM | < 100 nM | < 100 nM
CCOC(=O)Cn1cc(Nc2ncc3ccn(C[C@H]4CC[C@H](N)CC4)c3n2)cn1 [Compound 127, ethyl 2-(4-((7-(((1r,4r)-4-aminocyclohexyl)methyl)-7H-pyrrolo[2,3-d]pyrimidin-2-yl)amino)-1H-pyrazol-1-yl)acetate] | < 100 nM | < 100 nM | < 100 nM | < 100 nM
CCOC(=O)Cn1cc(Nc2ncc3ccn(C[C@H]4CC[C@@H](OC)CC4)c3n2)cn1 [Compound 128, ethyl 2-(4-((7-(((1s,4s)-4-methoxycyclohexyl)methyl)-7H-pyrrolo[2,3-d]pyrimidin-2-yl)amino)-1H-pyrazol-1-yl)acetate] | 100 to 1000 nM | 1000 to 10000 nM | 100 to 1000 nM | 100 to 1000 nM
CCOC(=O)Cn1cc(Nc2ncc3ccn(C[C@H]4CC[C@H](OC)CC4)c3n2)cn1 [Compound 129, ethyl 2-(4-((7-(((1r,4r)-4-methoxycyclohexyl)methyl)-7H-pyrrolo[2,3-d]pyrimidin-2-yl)amino)-1H-pyrazol-1-yl)acetate] | < 100 nM | 100 to 1000 nM | < 100 nM | < 100 nM
CCOC(=O)Cn1cc(Nc2ncc3ccn(C[C@H]4CCC[C@@H](OC)C4)c3n2)cn1 [Compound 130, ethyl 2-(4-((7-(((1S,3R)-3-methoxycyclohexyl)methyl)-7H-pyrrolo[2,3-d]pyrimidin-2-yl)amino)-1H-pyrazol-1-yl)acetate] | < 100 nM | < 100 nM | < 100 nM | < 100 nM
CCOC(=O)Cn1cc(Nc2ncc3ccn(C[C@@H]4CCC[C@@H](OC)C4)c3n2)cn1 [Compound 131, ethyl 2-(4-((7-(((1R,3R)-3-methoxycyclohexyl)methyl)-7H-pyrrolo[2,3-d]pyrimidin-2-yl)amino)-1H-pyrazol-1-yl)acetate] | < 100 nM | 100 to 1000 nM | < 100 nM | < 100 nM
CC[C@@H](Cn1ccc2cnc(Nc3cnn(CC(=O)OC(C)C)c3)nc21)C(C)C [Compound 132, isopropyl (R)-2-(4-((7-(2-ethyl-3-methylbutyl)-7H-pyrrolo[2,3-d]pyrimidin-2-yl)amino)-1H-pyrazol-1-yl)acetate] | < 100 nM | < 100 nM | < 100 nM | < 100 nM

Next, values leading:

IC50 [1] | IC50 [2] | IC50 [3] | IC50 [4] | SMILES
< 100 nM | < 100 nM | < 100 nM | < 100 nM | CCC(Cn1ccc2cnc(Nc3cnn(CC(=O)O[C@H](C)CO)c3)nc21)C(C)C (stereo partly drawn) [Compound 106, (R)-1-hydroxypropan-2-yl 2-(4-((7-(2-ethyl-3-methylbutyl)-7H-pyrrolo[2,3-d]pyrimidin-2-yl)amino)-1H-pyrazol-1-yl)acetate]
< 100 nM | < 100 nM | < 100 nM | < 100 nM | CCC(Cn1ccc2cnc(Nc3cnn(CC(=O)OC[C@@H](C)O)c3)nc21)C(C)C (stereo partly drawn) [Compound 110, (R)-2-hydroxypropyl 2-(4-((7-(2-ethyl-3-methylbutyl)-7H-pyrrolo[2,3-d]pyrimidin-2-yl)amino)-1H-pyrazol-1-yl)acetate]
< 100 nM | < 100 nM | < 100 nM | < 100 nM | CCC(Cn1ccc2cnc(Nc3cnn(CC(=O)OC[C@H](C)O)c3)nc21)C(C)C (stereo partly drawn) [Compound 112, (S)-2-hydroxypropyl 2-(4-((7-(2-ethyl-3-methylbutyl)-7H-pyrrolo[2,3-d]pyrimidin-2-yl)amino)-1H-pyrazol-1-yl)acetate]
< 100 nM | < 100 nM | < 100 nM | < 100 nM | CC[C@@H](Cn1ccc2cnc(Nc3cnn(C(C)C(=O)O)c3)nc21)C(C)C (stereo partly drawn) [Compound 114, 2-(4-((7-((R)-2-ethyl-3-methylbutyl)-7H-pyrrolo[2,3-d]pyrimidin-2-yl)amino)-1H-pyrazol-1-yl)propanoic acid]
< 100 nM | < 100 nM | < 100 nM | < 100 nM | CC[C@H](Cn1ccc2cnc(Nc3cnn(CCC(=O)O)c3)nc21)C(C)C [Compound 115, (S)-3-(4-((7-(2-ethyl-3-methylbutyl)-7H-pyrrolo[2,3-d]pyrimidin-2-yl)amino)-1H-pyrazol-1-yl)propanoic acid]
< 100 nM | < 100 nM | < 100 nM | < 100 nM | CCOC(=O)CCn1cc(Nc2ncc3ccn(C[C@@H](CC)C(C)C)c3n2)cn1 [Compound 119, ethyl (S)-3-(4-((7-(2-ethyl-3-methylbutyl)-7H-pyrrolo[2,3-d]pyrimidin-2-yl)amino)-1H-pyrazol-1-yl)propanoate]
< 100 nM | < 100 nM | < 100 nM | < 100 nM | CCOC(=O)Cn1cc(Nc2ncc3ccn(C[C@H](CC)C(C)C)c3n2)cn1 [Compound 133, ethyl (R)-2-(4-((7-(2-ethyl-3-methylbutyl)-7H-pyrrolo[2,3-d]pyrimidin-2-yl)amino)-1H-pyrazol-1-yl)acetate]
< 100 nM | < 100 nM | < 100 nM | < 100 nM | CC[C@H](Cn1ccc2cnc(Nc3cnn(CC(=O)OC(C)C)c3)nc21)C(C)C [Compound 134, isopropyl (S)-2-(4-((7-(2-ethyl-3-methylbutyl)-7H-pyrrolo[2,3-d]pyrimidin-2-yl)amino)-1H-pyrazol-1-yl)acetate]
